Results taken from patent publication US9856250B2, “Substituted tropane derivatives” (TOA EIYO LTD., priority 2014, dated 2018).
Where two headings read alike, the source gives them in different places.

Target: human T-type calcium channels (human Cav3.2) (Homo sapiens (Human), UniProt O95180)
Experiment: Antagonistic activity against T-type calcium channels (Cav3.2), Fura2 intracellular calcium assay in HEK293 cells
Type: cell-based
Protocol: For representative compounds of the present invention, the antagonistic activity against T-type calcium channels (Cav3.2) was examined by the Test Examples described below. For the respective tests, human embryo kidney cells (HEK293 cells) in which human T-type calcium channels (human Cav3.2) were stably expressed were used.
The HEK293 cells having human Cav3.2 stably expressed therein were cultured at 37° C. in Alpha-MEM, to which 10% (v/v) fetal bovine serum (FBS), penicillin (100 U/mL), streptomycin (100 μg/mL), and G418 ([…]) had been added. The cells were suspended in the culture liquid and were inoculated onto a 96-well plate. Subsequently, the cells were cultured for 48 hours. The culture liquid was removed, and the liquid was changed to S-MEM, to which 5% (v/v) FBS, calcium chloride (0.5 mmol/L), L-glutamine (2 mmol/L), L-alanine (8.9 ng/mL), L-asparagine (13.2 ng/mL), L-aspartic acid (1.33 ng/mL), L-glutamic acid (14.7 ng/mL), glycine (7.5 ng/mL), L-proline (11.5 ng/mL, L-serine (10.5 ng/mL), penicillin (100 U/mL), and streptomycin (100 μg/mL) had been added. The cells were cultured for another 24 hours. The culture liquid was removed again, and the cells were washed with an assay buffer (140 mmol/L sodium chloride, 5 mmol/L potassium chloride, 0.5 mmol/L magnesium chloride, 0.5 mmol/L calcium chloride, 10 mmol/L glucose, 0.4 mmol/L magnesium sulfate, 10 mmol/L HEPES, and […] sulfinpyrazone, pH 7.4) that had been kept warm at 37° C. Subsequently, an assay buffer prepared by dissolving Fura2-AM, which is a fluorescent Ca^2+ indicator, to a concentration of 5 μM, was added to the cells, and the system was incubated for 30 minutes at 37° C. The assay buffer having Fura2 dissolved therein was removed, and the cells were washed with the assay buffer. Subsequently, an assay buffer prepared by adding a test compound was added to the cells, and the system was incubated for 15 minutes. The plate was mounted on a fluorescence analyzer (FLEX STATION II, Molecular Devices, LLC), and the baseline was measured for 20 seconds. Subsequently, any change in the intracellular calcium concentration that was induced when an assay buffer prepared by adding 100 mmol/L calcium chloride was added to the cells, was measured (excited at 340 nm or 380 nm, and detected at 510 nm). The fluorescence intensity ratios obtainable at the respective wavelengths were calculated.
Meanwhile, the test compound solution was prepared by dissolving each test compound in DMSO to a concentration of 10 mmol/L, and then adjusting the concentration with the assay buffer so as to obtain the set concentration. For the control solution, DMSO was used instead of a test compound.
The inhibitory activity level (%) of a test compound was calculated by subtracting the average value of the fluorescence intensity ratio for a period of 0 to 20 seconds after initiation of measurement, from the average value of the fluorescence intensity ratio for a period of 45 to 50 seconds after initiation of measurement, taking the value obtained using the control solution as the maximum activity of Cav3.2, and comparing this value with the activity in the presence of the test compound.
Calculation of IC50 Value:
The inhibitory activity of each test compound was measured at concentrations of […], and the IC50 value was calculated using the curve fitting formula (Model 08: sigmoidal inhibition curve) of ASSAY EXPLORER (Symyx Technologies, Inc.).
Average of RFU value obtained for 25 to 30 seconds after the addition of a […] assay buffer after treatment with the control solution (for 45 to 50 seconds after the initiation of measurement). The RFU in the formula represents the Relative Fluorescence Unit.

[1] = HEK293 cells stably expressing human Cav3.2, Fura2 fluorescence ratio after calcium chloride addition, read-out: IC50

human T-type calcium channels (human Cav3.2), sequence (O95180 whole entry): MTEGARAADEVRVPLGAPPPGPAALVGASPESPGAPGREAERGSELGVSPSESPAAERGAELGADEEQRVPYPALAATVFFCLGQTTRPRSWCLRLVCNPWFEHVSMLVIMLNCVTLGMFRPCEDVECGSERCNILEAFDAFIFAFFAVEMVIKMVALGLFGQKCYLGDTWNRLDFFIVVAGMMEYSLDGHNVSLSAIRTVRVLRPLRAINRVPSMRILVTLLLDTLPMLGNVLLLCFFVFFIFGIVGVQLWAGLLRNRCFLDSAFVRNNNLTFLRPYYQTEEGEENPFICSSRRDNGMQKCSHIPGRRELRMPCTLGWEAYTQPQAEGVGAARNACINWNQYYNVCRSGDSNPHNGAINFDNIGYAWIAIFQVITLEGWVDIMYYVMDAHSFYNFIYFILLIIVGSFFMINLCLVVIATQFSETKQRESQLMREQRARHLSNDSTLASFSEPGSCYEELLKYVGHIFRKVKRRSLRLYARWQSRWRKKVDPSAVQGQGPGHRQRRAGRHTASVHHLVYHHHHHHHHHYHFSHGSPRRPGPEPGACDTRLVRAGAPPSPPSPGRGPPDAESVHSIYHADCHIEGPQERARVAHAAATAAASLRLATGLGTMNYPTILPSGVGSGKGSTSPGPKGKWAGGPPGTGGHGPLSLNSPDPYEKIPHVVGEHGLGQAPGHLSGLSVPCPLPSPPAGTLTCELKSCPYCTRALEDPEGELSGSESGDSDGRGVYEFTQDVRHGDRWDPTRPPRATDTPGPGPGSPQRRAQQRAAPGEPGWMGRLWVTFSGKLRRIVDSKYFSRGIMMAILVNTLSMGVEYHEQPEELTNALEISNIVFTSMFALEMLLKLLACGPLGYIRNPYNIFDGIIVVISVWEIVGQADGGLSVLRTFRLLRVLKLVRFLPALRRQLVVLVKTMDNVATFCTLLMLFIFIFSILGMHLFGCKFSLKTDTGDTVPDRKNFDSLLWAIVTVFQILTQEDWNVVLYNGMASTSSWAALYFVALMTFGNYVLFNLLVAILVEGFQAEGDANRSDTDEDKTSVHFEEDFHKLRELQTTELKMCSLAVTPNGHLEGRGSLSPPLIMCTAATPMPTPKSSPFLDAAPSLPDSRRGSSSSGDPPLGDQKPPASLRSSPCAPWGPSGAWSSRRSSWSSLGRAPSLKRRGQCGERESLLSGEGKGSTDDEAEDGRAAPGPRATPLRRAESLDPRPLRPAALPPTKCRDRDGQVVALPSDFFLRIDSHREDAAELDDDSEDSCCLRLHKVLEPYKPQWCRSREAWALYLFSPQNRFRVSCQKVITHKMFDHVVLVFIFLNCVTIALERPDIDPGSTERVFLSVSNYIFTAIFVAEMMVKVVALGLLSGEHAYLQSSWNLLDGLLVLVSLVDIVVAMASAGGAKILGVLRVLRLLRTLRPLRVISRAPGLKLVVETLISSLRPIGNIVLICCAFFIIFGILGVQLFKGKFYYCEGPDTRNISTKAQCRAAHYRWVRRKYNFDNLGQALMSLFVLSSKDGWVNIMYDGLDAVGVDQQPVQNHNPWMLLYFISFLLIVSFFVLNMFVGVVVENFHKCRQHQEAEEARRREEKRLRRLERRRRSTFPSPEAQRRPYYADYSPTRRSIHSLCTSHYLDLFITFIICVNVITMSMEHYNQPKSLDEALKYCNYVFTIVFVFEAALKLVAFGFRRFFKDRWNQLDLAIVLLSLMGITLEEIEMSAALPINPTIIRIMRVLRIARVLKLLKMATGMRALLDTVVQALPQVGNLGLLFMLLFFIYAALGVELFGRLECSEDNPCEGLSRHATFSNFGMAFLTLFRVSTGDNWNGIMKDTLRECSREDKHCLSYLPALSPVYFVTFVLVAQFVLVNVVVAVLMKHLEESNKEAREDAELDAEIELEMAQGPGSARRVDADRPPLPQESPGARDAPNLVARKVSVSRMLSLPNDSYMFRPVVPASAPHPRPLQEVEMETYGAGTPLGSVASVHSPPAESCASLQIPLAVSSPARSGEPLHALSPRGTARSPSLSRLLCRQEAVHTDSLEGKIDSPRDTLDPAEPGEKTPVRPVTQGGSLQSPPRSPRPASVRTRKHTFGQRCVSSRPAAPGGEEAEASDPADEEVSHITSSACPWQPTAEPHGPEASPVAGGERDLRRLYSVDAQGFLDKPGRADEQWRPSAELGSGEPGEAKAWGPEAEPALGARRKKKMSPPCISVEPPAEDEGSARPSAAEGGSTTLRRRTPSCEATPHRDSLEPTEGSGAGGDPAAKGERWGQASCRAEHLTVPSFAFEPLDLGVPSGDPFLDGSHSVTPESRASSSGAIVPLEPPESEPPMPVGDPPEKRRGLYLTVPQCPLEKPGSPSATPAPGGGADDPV

| Compound | IC50 [1] | IC50 |
| --- | --- | --- |
| CC(C)(C)NC(=O)CN1[C@@H]2CC[C@H]1C[C@H](CC(=O)Nc1cccc(Cl)c1)C2 [Example 1, 2-[(exo)-8-(tert-Butylcarbamoyl)methyl-8-azabicyclo[3.2.1]octan-3-yl]-N-(3-chlorophenyl)acetamide] | 68 nM |  |
| COc1cc(F)cc(NC(=O)C[C@@H]2C[C@H]3CC[C@@H](C2)N3CC(=O)NC(C)(C)C)c1 [Example 3] | 69 nM |  |
| CC(C)(C)NC(=O)CN1[C@@H]2CC[C@H]1C[C@H](CC(=O)NC13CC4CC(CC(C4)C1)C3)C2 [Example 4, N-(Adamantan-1-yl)-2-[(exo)-8-(tert-butylcarbamoyl)methyl-8-azabicyclo[3.2.1]octan-3-yl]acetamide] | 82 nM |  |
| CC(C)(C)NC(=O)CN1[C@@H]2CC[C@H]1C[C@H](CNC(=O)c1coc3ccccc13)C2 [Example 11, N-[(exo)-8-(tert-Butylcarbamoyl)methyl-8-azabicyclo[3.2.1]octan-3-yl]methylbenzofuran-3-carboxamide] | 3 nM |  |
| CC(C)(C)NC(=O)CN1[C@@H]2CC[C@H]1C[C@H](CNC(=O)c1csc3c1CCCC3)C2 [Example 16] | 47 nM |  |
| CC(C)(C)NC(=O)CN1[C@@H]2CC[C@H]1C[C@H](CNC(=O)CC13CC4CC(CC(C4)C1)C3)C2 [Example 18] |  | 73 nM |
| Cc1oc2c(c1C(=O)NC[C@@H]1C[C@H]3CC[C@@H](C1)N3CC(=O)NC(C)(C)C)CCCC2 [Example 19] |  | 48 nM |
| Cc1cc(C(=O)NC[C@@H]2C[C@H]3CC[C@@H](C2)N3CC(=O)NC(C)(C)C)n(C)n1 [Example 23] | 203 nM |  |
| Cn1cc(C(=O)NC[C@@H]2C[C@H]3CC[C@@H](C2)N3CC(=O)NC(C)(C)C)c2ccccc21 [Example 24] |  | 78 nM |
| CC(C)(C)NC(=O)CN1[C@@H]2CC[C@H]1C[C@H](CNC(=O)C(C)(C)Oc1ccc(C3CC3(Cl)Cl)cc1)C2 (stereo partly shown) [Example 27] | 94 nM |  |
| CC(C)(C)NC(=O)CN1[C@@H]2CC[C@H]1C[C@H](CNC(=O)C(C)(C)Oc1ccccc1)C2 [Example 28] | 65 nM |  |
| CC(C)(C)NC(=O)CN1[C@@H]2CC[C@H]1C[C@H](CNC(=O)C(C)(C)Oc1cccc(Cl)c1)C2 [Example 31] |  | 73 nM |
| COc1cccc(OC(C)(C)C(=O)NC[C@@H]2C[C@H]3CC[C@@H](C2)N3CC(=O)NC(C)(C)C)c1 [Example 32] | 98 nM |  |
| CCn1cc(C(=O)NC[C@@H]2C[C@H]3CC[C@@H](C2)N3CC(=O)NC(C)(C)C)c2ccccc21 [Example 36] |  | 49 nM |
| Cc1c(C(=O)NC[C@@H]2C[C@H]3CC[C@@H](C2)N3CC(=O)NC(C)(C)C)c2ccccc2n1C [Example 37] |  | 67 nM |
| Cn1cc(C(=O)NC[C@@H]2C[C@H]3CC[C@@H](C2)N3CC(=O)NC2(C(F)(F)F)CC2)c2ccccc21 [Example 45] |  | 103 nM |
| CC(C)(C)NC(=O)CN1[C@@H]2CC[C@H]1C[C@H](CNC(=O)c1cccc(Cl)c1)C2 [Example 52] | 48 nM |  |
| COc1cc(Cl)cc(C(=O)NC[C@@H]2C[C@H]3CC[C@@H](C2)N3CC(=O)NC(C)(C)C)c1 [Example 53] | 49 nM |  |
| Cc1cc(F)cc(C(=O)NC[C@@H]2C[C@H]3CC[C@@H](C2)N3CC(=O)NC(C)(C)C)c1 [Example 55] | 36 nM |  |
| COc1cc(F)cc(C(=O)NC[C@@H]2C[C@H]3CC[C@@H](C2)N3CC(=O)NC(C)(C)C)c1 [Example 56] |  | 34 nM |
| CC(C)(C)NC(=O)CN1[C@@H]2CC[C@H]1C[C@H](CNC(=O)c1ccc3c(c1)CCCO3)C2 [Example 59] | 61 nM |  |
| CC(C)(C)NC(=O)CN1[C@@H]2CC[C@H]1C[C@H](CNC(=O)c1cccc3c1CCC3)C2 [Example 60] | 78 nM |  |
| CC(C)(C)NC(=O)CN1[C@@H]2CC[C@H]1C[C@H](CNC(=O)C13CC4CC(CC(C4)C1)C3)C2 [Example 65] | 99 nM |  |

| Compound | IC50 [1] | IC50 |
| --- | --- | --- |
| CC(C)(C)NC(=O)CN1[C@@H]2CC[C@H]1C[C@H](CNC(=O)C1C(C)(C)C1(C)C)C2 [Example 67] | 42 nM |  |
| Cn1nc(C(C)(C)C)cc1C(=O)NC[C@@H]1C[C@H]2CC[C@@H](C1)N2CC(=O)NC(C)(C)C [Example 69] | 51 nM |  |
| CC(C)(C)CCC(=O)NC[C@@H]1C[C@H]2CC[C@@H](C1)N2CC(=O)NC(C)(C)C [Example 71] | 64 nM |  |
| COc1cc(C)cc(C(=O)NC[C@@H]2C[C@H]3CC[C@@H](C2)N3CC(=O)NC(C)(C)C)c1 [Example 72] | 55 nM |  |
| CC(C)(C)NC(=O)CN1[C@@H]2CC[C@H]1C[C@H](CNC(=O)C1CCCCC1)C2 [Example 74] |  | 101 nM |
| CC(C)(C)NC(=O)CN1[C@@H]2CC[C@H]1C[C@H](CNC(=O)c1ccc(Cl)cc1)C2 [Example 77] |  | 22 nM |
| CC(C)(C)NC(=O)CN1[C@@H]2CC[C@H]1C[C@H](CNC(=O)c1ccc(F)cc1)C2 [Example 78] | 44 nM |  |
| CC(C)(C)NC(=O)CN1[C@@H]2CC[C@H]1C[C@H](CNC(=O)c1cc(F)cc(C#N)c1)C2 [Example 79] |  | 45 nM |
| Cc1ccc(C(=O)NC[C@@H]2C[C@H]3CC[C@@H](C2)N3CC(=O)NC(C)(C)C)s1 [Example 81] | 93 nM |  |
| CCc1oc2ccccc2c1C(=O)NC[C@@H]1C[C@H]2CC[C@@H](C1)N2CC(=O)NC(C)(C)C [Example 84] |  | 10 nM |
| Cc1oc2ccccc2c1C(=O)NC[C@@H]1C[C@H]2CC[C@@H](C1)N2CC(=O)NC(C)(C)C [Example 85] |  | 15 nM |
| COc1ccc2oc(C)c(C(=O)NC[C@@H]3C[C@H]4CC[C@@H](C3)N4CC(=O)NC(C)(C)C)c2c1 [Example 86] |  | 91 nM |
| Cc1oc2c(c1C(=O)NC[C@@H]1C[C@H]3CC[C@@H](C1)N3CC(=O)NC1(C(F)(F)F)CC1)CCCC2 [Example 95] |  | 88 nM |
| COc1cc(C)cc(C(=O)NC[C@@H]2C[C@H]3CC[C@@H](C2)N3CC(=O)NC2(C(F)(F)F)CC2)c1 [Example 96] | 58 nM |  |
| Cn1cc(C(=O)NC[C@@H]2C[C@H]3CC[C@@H](C2)N3CC(=O)NC(C)(C)C)c2cc(Cl)ccc21 [Example 100, N-[(exo)-8-(tert-Butylcarbamoyl)methyl-8-azabicyclo[3.2.1]octan-3-yl]methyl-5-chloro-1-methyl-1H-indole-3-carboxamide] | 85 nM |  |
| COCC(C)(C)NC(=O)CN1[C@@H]2CC[C@H]1C[C@H](CNC(=O)c1cc(F)cc(Cl)c1)C2 [Example 104, 3-Chloro-5-fluoro-N-{(exo)-8-[(2-methoxy-1,1-dimethylethyl)carbamoyl]methyl-8-azabicyclo[3.2.1]octan-3-yl}methylbenzamide] | 13 nM |  |
| CC(C)(C)NC(=O)CN1[C@@H]2CC[C@H]1C[C@H](CNC(=O)C13CC4CC(CC1C4)C3)C2 [Example 107] |  | 49 nM |
| O=C(CN1[C@@H]2CC[C@H]1C[C@H](CNC(=O)C13CC4CC(CC1C4)C3)C2)NC1(CO)CCCC1 [Example 109] |  | 94 nM |
| CC1(NC(=O)CN2[C@@H]3CC[C@H]2C[C@H](CNC(=O)c2cc(F)cc(Cl)c2)C3)COC1 [Example 112] | 93 nM |  |
| CC(C)(C)NC(=O)CN1[C@@H]2CC[C@H]1C[C@H](CNC(=O)c1cccc(F)c1)C2 [Example 113] |  | 39 nM |
| O=C(CN1[C@@H]2CC[C@H]1C[C@H](CNC(=O)c1cc(F)cc(Cl)c1)C2)NC1(C(F)(F)F)CC1 [Example 114] | 70 nM |  |
| CC1(NC(=O)CN2[C@@H]3CC[C@H]2C[C@H](CNC(=O)c2cc(F)cc(Cl)c2)C3)CC1 [Example 115] | 63 nM |  |
| CN(C(=O)CN1[C@@H]2CC[C@H]1C[C@H](CNC(=O)c1cc(F)cc(Cl)c1)C2)C(C)(C)C [Example 118] | 78 nM |  |
